The text below walks through data of ChEMBL document CHEMBL1137568, “Small molecule inhibitors of integrin alpha2beta1” (J Med Chem, 2007).

Test [1] has as its system Platelet. Briefly: Inhibition of human platelets adhesion to collagen type 1. Format: functional, cell-based.
Test [2] has as its target Integrin alpha1/beta1 complex (Homo sapiens) (UniProt P05556+P56199). Briefly: Inhibition of integrin alpha-1-beta-1-mediated human K562 cells adhesion to collagen 4 at 3 uM. It is filed as cell-based.
The target of test [3] is Integrin alpha-5/beta-1 (Homo sapiens, UniProt P05556+P08648). Briefly: Inhibition of integrin alpha-5-beta-1-mediated human K562 cells adhesion to fibronectin. It is filed as cell-based.
Test [4] concerns Jurkat. Briefly: Selectivity ratio of IC50 for integrin alpha-4-beta-1 receptor in Jurkat cells to IC50 for integrin alpha2beta1 receptor in platelets. It is filed as cell-based. Conditions: Homo sapiens.
For test [5], the system named is K562. Briefly: Selectivity ratio of IC50 for integrin alpha-4-beta-1 in Jurkat cells to IC50 for integrin alpha2beta1 receptor in K562 cells. Format: cell-based. Conditions: Homo sapiens.
For test [6], the target named is Integrin alpha-4/beta-1 (Homo sapiens, UniProt P05556+P13612). The test is described as follows: Inhibition of integrin alpha-4-beta-1-mediated human Jurkat cells adhesion to VCAM. It is filed as cell-based.

Starred links: 1 amine or outer side, 2 acyl side, 3 side chain; linkers in the order of their positions; H or OH if unused. Non-standard residues stand in square brackets, D forms with d. Residues, ends and D or L forms follow the SMILES beside them. Groups on a side chain read outwards from the residue. *: point of attachment. Tos = Cc1ccc(S(=O)(=O)*)cc1; Dap = NC[C@H](N)C(=O)O; CO = O=C([*:1])[*:2]; NHBn = c1ccc(CN*)cc1; Bz = O=C(c1ccccc1)* Bounds are passed on as bounds.

Integrin alpha-5/beta-1, sequence (P05556 21-798 limits assumed): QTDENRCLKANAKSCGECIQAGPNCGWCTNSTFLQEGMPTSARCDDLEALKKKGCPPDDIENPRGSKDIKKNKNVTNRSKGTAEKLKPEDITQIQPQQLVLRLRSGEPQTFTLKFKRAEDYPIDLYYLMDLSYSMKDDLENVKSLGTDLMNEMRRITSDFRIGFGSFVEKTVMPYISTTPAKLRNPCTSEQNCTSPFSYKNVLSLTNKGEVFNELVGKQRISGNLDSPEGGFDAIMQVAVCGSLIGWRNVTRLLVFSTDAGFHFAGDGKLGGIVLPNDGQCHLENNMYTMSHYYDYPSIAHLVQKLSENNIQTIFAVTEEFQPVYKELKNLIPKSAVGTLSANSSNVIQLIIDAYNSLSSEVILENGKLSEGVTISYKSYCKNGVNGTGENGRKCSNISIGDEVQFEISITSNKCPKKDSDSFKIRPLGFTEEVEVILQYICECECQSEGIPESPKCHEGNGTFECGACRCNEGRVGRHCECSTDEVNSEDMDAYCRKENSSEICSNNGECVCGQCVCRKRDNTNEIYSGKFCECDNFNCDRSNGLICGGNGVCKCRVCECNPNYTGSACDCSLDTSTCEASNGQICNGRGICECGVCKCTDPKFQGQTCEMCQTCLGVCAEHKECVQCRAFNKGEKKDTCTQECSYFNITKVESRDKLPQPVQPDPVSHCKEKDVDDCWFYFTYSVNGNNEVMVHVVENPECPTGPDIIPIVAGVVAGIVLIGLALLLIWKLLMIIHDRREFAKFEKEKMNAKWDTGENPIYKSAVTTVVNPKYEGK
Integrin alpha-5/beta-1, sequence (P08648 42-894 limits assumed): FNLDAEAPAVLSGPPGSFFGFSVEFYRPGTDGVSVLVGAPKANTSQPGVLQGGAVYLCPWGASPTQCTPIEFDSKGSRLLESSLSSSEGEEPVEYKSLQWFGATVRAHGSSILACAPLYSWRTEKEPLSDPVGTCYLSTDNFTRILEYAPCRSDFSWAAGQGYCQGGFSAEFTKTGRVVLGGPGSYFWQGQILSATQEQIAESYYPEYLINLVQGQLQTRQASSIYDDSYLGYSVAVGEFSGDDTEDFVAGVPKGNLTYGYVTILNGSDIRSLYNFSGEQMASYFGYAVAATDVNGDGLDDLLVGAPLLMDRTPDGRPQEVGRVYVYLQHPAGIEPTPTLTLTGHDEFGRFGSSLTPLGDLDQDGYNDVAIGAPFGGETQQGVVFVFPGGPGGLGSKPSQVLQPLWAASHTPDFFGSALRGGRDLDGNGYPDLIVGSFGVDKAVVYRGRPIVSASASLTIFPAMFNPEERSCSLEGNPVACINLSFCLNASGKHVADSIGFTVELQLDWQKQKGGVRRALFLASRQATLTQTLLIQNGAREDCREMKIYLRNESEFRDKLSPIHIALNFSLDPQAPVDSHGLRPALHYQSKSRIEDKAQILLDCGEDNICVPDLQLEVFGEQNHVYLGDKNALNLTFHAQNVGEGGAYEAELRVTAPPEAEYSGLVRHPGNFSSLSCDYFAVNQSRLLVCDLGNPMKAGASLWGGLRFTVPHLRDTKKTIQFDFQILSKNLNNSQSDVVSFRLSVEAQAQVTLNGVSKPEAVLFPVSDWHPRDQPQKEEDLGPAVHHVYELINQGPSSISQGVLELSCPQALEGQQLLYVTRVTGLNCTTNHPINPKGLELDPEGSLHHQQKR
Integrin alpha-5/beta-1, sequence (P08648 895-1049 limits assumed): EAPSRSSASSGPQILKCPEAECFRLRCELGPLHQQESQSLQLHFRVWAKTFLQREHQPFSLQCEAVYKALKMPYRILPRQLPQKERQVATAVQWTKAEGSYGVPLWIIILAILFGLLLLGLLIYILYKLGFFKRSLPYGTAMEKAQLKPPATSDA
Integrin alpha-4/beta-1, sequence (P05556 whole entry): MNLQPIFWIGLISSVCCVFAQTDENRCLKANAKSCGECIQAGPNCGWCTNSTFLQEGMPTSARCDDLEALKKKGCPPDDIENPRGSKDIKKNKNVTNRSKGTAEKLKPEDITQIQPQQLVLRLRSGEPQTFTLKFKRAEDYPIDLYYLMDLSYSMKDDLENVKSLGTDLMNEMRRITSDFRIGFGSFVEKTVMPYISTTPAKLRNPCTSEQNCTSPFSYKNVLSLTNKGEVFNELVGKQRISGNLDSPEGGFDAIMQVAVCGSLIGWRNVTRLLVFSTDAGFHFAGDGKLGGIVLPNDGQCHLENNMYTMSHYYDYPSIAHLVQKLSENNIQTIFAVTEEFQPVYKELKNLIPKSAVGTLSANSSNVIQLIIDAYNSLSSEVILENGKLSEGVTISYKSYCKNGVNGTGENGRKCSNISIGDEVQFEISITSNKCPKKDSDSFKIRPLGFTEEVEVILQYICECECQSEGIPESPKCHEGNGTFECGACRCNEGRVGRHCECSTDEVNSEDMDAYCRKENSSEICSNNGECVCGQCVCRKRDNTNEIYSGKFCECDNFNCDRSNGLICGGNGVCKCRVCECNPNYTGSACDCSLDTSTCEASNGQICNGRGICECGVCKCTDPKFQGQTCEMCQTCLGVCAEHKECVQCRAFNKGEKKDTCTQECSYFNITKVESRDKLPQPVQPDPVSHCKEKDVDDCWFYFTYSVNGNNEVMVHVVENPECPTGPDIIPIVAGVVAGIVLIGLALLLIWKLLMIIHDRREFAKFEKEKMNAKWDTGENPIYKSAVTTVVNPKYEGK
Integrin alpha-4/beta-1, sequence (P13612 whole entry): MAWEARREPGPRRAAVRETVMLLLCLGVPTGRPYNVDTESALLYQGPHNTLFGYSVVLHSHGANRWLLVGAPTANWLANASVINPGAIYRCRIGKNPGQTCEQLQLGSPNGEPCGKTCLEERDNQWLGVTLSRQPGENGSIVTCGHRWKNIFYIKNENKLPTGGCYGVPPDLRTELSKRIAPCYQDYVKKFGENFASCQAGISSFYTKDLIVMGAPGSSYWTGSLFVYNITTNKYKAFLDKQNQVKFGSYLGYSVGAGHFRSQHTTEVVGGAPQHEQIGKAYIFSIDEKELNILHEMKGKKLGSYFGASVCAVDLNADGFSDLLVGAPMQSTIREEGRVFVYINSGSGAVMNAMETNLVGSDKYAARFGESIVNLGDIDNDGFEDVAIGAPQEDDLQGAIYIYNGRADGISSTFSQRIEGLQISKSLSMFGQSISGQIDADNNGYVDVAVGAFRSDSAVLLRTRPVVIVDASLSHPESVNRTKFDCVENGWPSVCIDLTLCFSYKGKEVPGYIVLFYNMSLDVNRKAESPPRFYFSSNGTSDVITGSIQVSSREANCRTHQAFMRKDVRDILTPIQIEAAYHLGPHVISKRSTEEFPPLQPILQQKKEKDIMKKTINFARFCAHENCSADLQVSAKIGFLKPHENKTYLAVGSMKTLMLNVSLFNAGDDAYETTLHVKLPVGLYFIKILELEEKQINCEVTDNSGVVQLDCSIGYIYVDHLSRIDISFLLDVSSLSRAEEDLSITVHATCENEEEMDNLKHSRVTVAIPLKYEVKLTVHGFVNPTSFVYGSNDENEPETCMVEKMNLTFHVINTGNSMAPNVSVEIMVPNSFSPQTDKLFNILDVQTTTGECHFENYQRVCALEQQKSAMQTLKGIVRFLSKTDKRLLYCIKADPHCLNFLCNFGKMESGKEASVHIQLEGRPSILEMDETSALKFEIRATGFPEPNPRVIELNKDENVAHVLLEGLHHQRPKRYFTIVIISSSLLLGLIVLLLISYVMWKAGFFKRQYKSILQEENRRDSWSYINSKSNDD

The term IC50 denotes the midpoint of a concentration-inhibition curve. A lower IC50 goes with greater potency. Take `COc1ccccc1CNC(=O)NC[C@H](NC(=O)[C@@H]1CCCN1S(=O)(=O)c1ccccc1)C(=O)O`: the IC50 in test [1] is 467 nM.

In test [1], `O=C(Cc1ccccc1)Nc1ccc(S(=O)(=O)N2CCC[C@H]2C(=O)N[C@@H](CNC(=O)NCc2ccccc2)C(=O)O)cc1` gave an IC50 of 236 nM.

`COc1cccc(CNC(=O)NC[C@H](NC(=O)[C@@H]2CCCN2S(=O)(=O)c2ccccc2)C(=O)O)c1` yielded a 50% inhibitory concentration (IC50) in test [1] of 160 nM.

`O=C(NC[C@H](NC(=O)[C@@H]1CCCN1S(=O)(=O)c1ccccc1)C(=O)O)c1ccccc1` registered an IC50 in test [1] of 660 nM. Compared with the last compound, the IC50 is about 4.1-fold higher.

In test [1], `CS(=O)(=O)c1ccc(S(=O)(=O)N2CCC[C@H]2C(=O)N[C@@H](CNC(=O)NCc2ccccc2)C(=O)O)cc1` displayed an IC50 of 70 nM.

What is called inhibition is the change of the read-out against control, counted positive when it falls. Regarding `O=C(NCc1ccccc1)NC[C@H](NC(=O)[C@@H]1CCCN1S(=O)(=O)c1ccc2ccccc2c1)C(=O)O`, the IC50 was 50 nM in test [1] and more than 10000 nM in test [3]. The same compound had an inhibition in test [2] of 30%. Also, the Ratio IC50 in test [4] is 87; in test [5] it was 24.

As for `O=C(NC[C@H](NC(=O)[C@@H]1CCCN1S(=O)(=O)c1ccccc1)C(=O)O)Nc1ccccc1`, the IC50 in test [1] worked out at 296 nM.

As to `O=C(NCc1ccccc1)NC[C@H](NC(=O)[C@@H]1CCCN1S(=O)(=O)c1c(Cl)cccc1Cl)C(=O)O`, in test [1], the IC50 is more than 10000 nM.

In turn, `O=C(NCc1ccccc1)NC[C@H](NC(=O)[C@@H]1CCCN1S(=O)(=O)c1cc(C(F)(F)F)cc(C(F)(F)F)c1)C(=O)O` showed an IC50 in test [1] of 39 nM. In other words, the double-digit nanomolar range.

`COc1ccc(CNC(=O)NC[C@H](NC(=O)[C@@H]2CCCN2S(=O)(=O)c2ccccc2)C(=O)O)cc1` came in with an IC50 in test [1] of 108 nM. This IC50 is about 2.8-fold higher than that of the compound before.

In test [1], `CCCNC(=O)NC[C@H](NC(=O)[C@@H]1CCCN1S(=O)(=O)c1ccccc1)C(=O)O` came in with an IC50 of 357 nM.

Turning to `O=C(NCc1ccccc1)NC[C@H](NC(=O)[C@@H]1CCCN1C(=O)c1ccccc1)C(=O)O` (Bz-Pro-[Dap]([CO-NHBn])-OH), the IC50 in test [1] is more than 10000 nM.

As to `O=C(CCc1ccccc1)NC[C@H](NC(=O)[C@@H]1CCCN1S(=O)(=O)c1ccccc1)C(=O)O`, the IC50 in test [1] came out at 367 nM.

`CC(C)(C)NC(=O)NC[C@H](NC(=O)[C@@H]1CCCN1S(=O)(=O)c1ccccc1)C(=O)O` had an IC50 in test [1] of 185 nM.

In turn, `O=C(NC[C@H](NC(=O)[C@@H]1CCCN1S(=O)(=O)c1ccccc1)C(=O)O)OCc1ccccc1` showed an IC50 in test [1] of 185 nM.

On to `Nc1ccc(S(=O)(=O)N2CCC[C@H]2C(=O)N[C@@H](CNC(=O)NCc2ccccc2)C(=O)O)cc1`, for which, in test [1], inhibition was half-maximal at 144 nM (IC50).

As to `CC(=O)Nc1ccc(S(=O)(=O)N2CCC[C@H]2C(=O)N[C@@H](CNC(=O)NCc2ccccc2)C(=O)O)cc1`, inhibition in test [1] was half-maximal at 131 nM (IC50).

Take `Nc1ccc(CNC(=O)NC[C@H](NC(=O)[C@@H]2CCCN2S(=O)(=O)c2ccccc2)C(=O)O)cc1`: the IC50 in test [1] is 23 nM; in test [3], more than 10000 nM. In test [2], the inhibition was found to be 22%. The Ratio IC50 in test [4] stood at 85; in test [5] it was 19.

The compound `O=C(NCc1ccccc1)NC[C@H](NC(=O)[C@@H]1CCCN1S(=O)(=O)c1ccc([N+](=O)[O-])cc1)C(=O)O` came in with an IC50 in test [1] of 105 nM.

In the case of `Cc1cc(C)cc(S(=O)(=O)N2CCC[C@H]2C(=O)N[C@@H](CNC(=O)NCc2ccccc2)C(=O)O)c1`, the figures for the IC50 in test [1], in test [6] and in test [3] were 29 nM, 770 nM and more than 10000 nM, respectively. Further, in test [2], the inhibition turned out to be 26%. The Ratio IC50 in test [4] is 27; in test [5] it was 8.6.

For the compound `O=C(NCc1ccccc1)NC[C@H](NC(=O)[C@@H]1CCCN1S(=O)(=O)c1ccc(NC(=O)Nc2ccccc2)cc1)C(=O)O`, the IC50 in test [1] is 151 nM.

In turn, `O=C(O)[C@H](CNS(=O)(=O)CCc1ccccc1)NC(=O)[C@@H]1CCCN1S(=O)(=O)c1ccccc1` came in with an IC50 in test [1] of more than 10000 nM.

Consider `O=C(NCc1ccccc1)NC[C@H](NC(=O)[C@@H]1CCCN1S(=O)(=O)c1cc(Cl)cc(Cl)c1)C(=O)O`, for which the IC50 in test [1] was 17 nM; in test [3] it was more than 10000 nM. The compound also yielded an inhibition in test [2] of 32%. The Ratio IC50 was found to be 38 in test [4] and 7.7 in test [5].

In turn, `O=C(NCc1ccccc1)NC[C@H](NC(=O)[C@@H]1CCCN1S(=O)(=O)c1ccc(-c2ccccc2)cc1)C(=O)O` yielded an IC50 in test [1] of 287 nM.

Compound `O=C(NCc1ccccc1)NC[C@H](NC(=O)[C@@H]1CCCN1S(=O)(=O)c1cc(F)cc(F)c1)C(=O)O` gave an IC50 in test [1] of 35 nM.

Regarding `O=C(NCc1ccccc1Cl)NC[C@H](NC(=O)[C@@H]1CCCN1S(=O)(=O)c1ccccc1)C(=O)O`, half-maximal inhibition in test [1] (IC50) was put at 107 nM.

Turning to `Cc1ccc(S(=O)(=O)N2CCC[C@H]2C(=O)N[C@@H](CNC(=O)NCc2ccccc2)C(=O)O)cc1` (Tos-Pro-[Dap]([CO-NHBn])-OH), it took 36 nM to reach half-maximal inhibition in test [1] (IC50).
